Assay [1] concerns LTD4 (leukotriene D4)-induced contraction of guinea pig peripheral lung strips. Kind of assay: In vitro assay to identify leukotriene antagonist compounds (guinea pig lung strips), vs LTD4. It counts as cell-based. Particulars: 50% reduction of muscle response, read-out: In Vitro I50. As for the experimental part:
(§1) In Vitro Assay to Identify Leukotriene Antagonist Compounds […] Peripheral strips of guinea pig lungs are prepared and hung in tissue baths according to the procedure described by Drazen et al. Male guinea pigs (Charles River, 250-400 g) are sacrificed by cervical dislocation and their lungs rapidly removed. The individual lobes are dissected free and rinsed in Assay Buffer which is continuously aerated with 95% oxygen-5% carbon dioxide. After the lobes are extensively rinsed, a strip of lung tissue, approximately 2 mm thick and 5-8 cm long, is cut off the sharpest and most peripheral portion of each lobe. The peripheral edge is cut almost completely around the outside of the lobe so that a U-shaped strip is obtained. These strips are rinsed in Assay Buffer and then connected with surgical silk thread to the support rods from the tissue baths. The rods are adjusted in the baths and the strips connected to the pressure transducers. The tissue baths are aerated with 95% oxygen-5% carbon dioxide and maintained at 37°. The tension on these strips is adjusted to 500 mg with "re-zeros" the pen deflection on the previously calibrated polygraph. Tissues are initially washed with fresh buffer every 5-10 minutes for about 30 minutes. Thereafter, tissues were washed with fresh assay buffer at least every 20 minutes. Normalizing Muscle Contractions and Testing of Compounds 1. After the tissues have been repeatedly washed and allowed to equilibrate in the tissue bath, they are challenged with 1μM histamine. [Usually 10 μl of a 1 mM stock solution are added to the baths.] After maximum concentrations have been obtained, then tissues are washed and allowed to relax back to baseline tension. This histamine challenge procedure is repeated at least 1 or 2 more times to obtain a repeatable control response. […] Leukotriene (usually 0.4 units/ml) is added after the desired preincubation time and the muscle response is recorded. […] From this curve the concentration responding to the 50% reduction of the muscle concentration is calculated as the ^I 50 value. […]

The test system of assay [2] is LTC4-induced contraction of guinea pig peripheral lung strips. The assay is described as follows: In vitro assay to identify leukotriene antagonist compounds (guinea pig lung strips), vs LTC4. It is filed as cell-based. The following applies: Cavia porcellus, 50% reduction of muscle response, read-out: In Vitro I50. How it is done:
as §1

The test system of assay [3] is LTD4 (leukotriene D4)-induced cutaneous wheal formation. Kind of assay: Leukotriene D4-induced wheal formation in the guinea pig. Particulars: Cavia porcellus, po, 1 h, p.o., 0.1 μg LTD4 intradermally, given one hour before Evans blue dye, read-out: In Vivo LTD4 Wheal, ED50. Details: species or system guinea pig (male Hartley). How it is done:
Leukotriene D4 -Induced Wheal formation in the Guinea Pig Leukotriene D4 (LTD4) increases vascular permeability in guinea pig skin. LTD4 antagonists are tested for oral activity in a model of LTD4 -induced cutaneous wheal formation in the guinea pig. Male Hartley guinea pigs are given either vehicle (polyethylene glycol 400) or test compound by gauge one hour before intravenous injection of 1% Evans blue dye. Immediately after dye injection, 0.1 μg of LTD4 (in a volume of 0.1 ml) is injected intradermally at two separate dorsal sites. Thirty minutes later, the animals are sacrificed by carbon dioxide asphyxiation, the dorsal skins reflected, and glued wheal areas measured. Mean values±standard error for wheal areas in vehicle- and drug-treated groups are determined. Inhibition of wheal formation is calculated by comparison of drug-treated and control groups.

The ED50 is the midpoint of the dose-response relation.

Structures can show the parent of a compound that is named as a salt. Where two headings read alike, the source gives them in different places.

`C(=Cc1nnn[nH]1)c1cccc(OCc2ccc3ccccc3n2)c1.Cl` [Example 1C, 5-[3-(Quinolin-2-yl-methoxy)styryl]-tetrazole hydrochloride]: the IC50 in assay [1] (hydrochloride) was 80 nM; in assay [1] (Cavia porcellus), 60 nM; in assay [2], 150 nM. In addition, the ED50 in assay [3] is 22 mg/kg.

`N#CC=Cc1cccc(OCc2ccc3ccccc3n2)c1` [Example 1B, 3-(Quinolin-2-yl-methoxy)-cinnamylnitrile]: the IC50 was 650 nM in assay [1] (Cavia porcellus) and 1200 nM in assay [2].

As to `C(=Cc1nnn[nH]1)c1ccc(OCc2ccc3ccccc3n2)cc1` [Example 2C, 5-[4-(Quinolin-2-yl-methoxy)styryl]-tetrazole hydrochloride], the IC50 in assay [2] was determined as 500 nM.

(Values after patent US4868193A, “Styryl tetrazoles and anti-allergic use thereof” (Rorer Pharmaceutical Corporation, priority 1986, dated 1989).)
